Measured values reported in article PMC5237709 (Acta Pharmaceutica Sinica. B, 2016).

What was measured:
N-Hsp90 = N-Hsp90 (Saccharomyces cerevisiae, UniProt P02829); assay: Fluorescence quenching titration of N-terminal domain of Hsp90; format: binding, Yeast; settings: N-Hsp90 (1–236)
C-Hsp90 = biological target: T1, C-Hsp90 (Saccharomyces cerevisiae, UniProt P02829); assay: Fluorescence quenching titration of C-terminal domain of Hsp90; format: binding, Yeast; settings: C-Hsp90 (629–732)
T1 sequence (P02829 608-709): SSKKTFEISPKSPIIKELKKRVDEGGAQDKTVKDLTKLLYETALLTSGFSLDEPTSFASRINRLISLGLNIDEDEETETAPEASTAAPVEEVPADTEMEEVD

M-Hsp90 = M-Hsp90 (Saccharomyces cerevisiae, UniProt P02829); assay: Fluorescence quenching titration of middle domain of Hsp90; format: binding, Yeast; settings: M-Hsp90 (272–617)
Chain of M-Hsp90 (P02829 252-596): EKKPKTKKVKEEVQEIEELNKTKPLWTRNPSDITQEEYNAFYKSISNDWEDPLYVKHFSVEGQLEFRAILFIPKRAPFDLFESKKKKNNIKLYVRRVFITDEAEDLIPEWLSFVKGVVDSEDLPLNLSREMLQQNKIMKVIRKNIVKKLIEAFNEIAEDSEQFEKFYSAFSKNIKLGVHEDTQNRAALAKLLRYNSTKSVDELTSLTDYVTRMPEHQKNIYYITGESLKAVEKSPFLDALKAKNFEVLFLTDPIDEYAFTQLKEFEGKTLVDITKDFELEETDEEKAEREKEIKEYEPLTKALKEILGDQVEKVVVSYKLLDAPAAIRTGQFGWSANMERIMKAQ

Hsp90 ATPase = Hsp90 ATPase (Saccharomyces cerevisiae, UniProt P02829); assay: Hsp90 ATPase activity assay; format: biochemical, Yeast
Chain of Hsp90 ATPase (P02829 whole entry): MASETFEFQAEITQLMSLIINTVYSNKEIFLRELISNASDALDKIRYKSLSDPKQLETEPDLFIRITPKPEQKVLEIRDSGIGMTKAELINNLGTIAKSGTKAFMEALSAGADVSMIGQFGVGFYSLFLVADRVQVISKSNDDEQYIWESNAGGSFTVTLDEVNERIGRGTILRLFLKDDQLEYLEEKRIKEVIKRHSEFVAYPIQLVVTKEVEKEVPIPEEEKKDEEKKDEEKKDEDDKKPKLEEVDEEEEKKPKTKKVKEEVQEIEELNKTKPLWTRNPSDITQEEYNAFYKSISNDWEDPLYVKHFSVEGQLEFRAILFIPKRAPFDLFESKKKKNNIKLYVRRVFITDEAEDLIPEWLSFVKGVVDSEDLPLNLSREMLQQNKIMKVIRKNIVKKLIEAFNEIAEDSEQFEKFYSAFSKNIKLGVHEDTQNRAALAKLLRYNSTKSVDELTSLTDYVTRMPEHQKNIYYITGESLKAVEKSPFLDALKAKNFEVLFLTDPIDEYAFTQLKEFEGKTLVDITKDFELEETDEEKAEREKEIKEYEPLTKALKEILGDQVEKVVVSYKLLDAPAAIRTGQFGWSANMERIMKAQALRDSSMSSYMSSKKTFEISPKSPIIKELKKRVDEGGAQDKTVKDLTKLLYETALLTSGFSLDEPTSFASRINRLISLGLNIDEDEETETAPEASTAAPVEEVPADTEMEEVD

Chain of N-Hsp90 (P02829 1-223): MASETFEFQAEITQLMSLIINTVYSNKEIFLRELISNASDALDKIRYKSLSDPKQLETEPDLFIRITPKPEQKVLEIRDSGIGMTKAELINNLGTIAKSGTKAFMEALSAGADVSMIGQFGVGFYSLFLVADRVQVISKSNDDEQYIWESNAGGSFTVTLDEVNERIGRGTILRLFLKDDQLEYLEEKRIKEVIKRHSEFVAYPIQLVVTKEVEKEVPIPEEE

Fmax (N-Hsp90): 221.22±4.91
Fmax (C-Hsp90): 67.91±0.63
Fmax (M-Hsp90): 158.20±1.68
Inhibition of the ATPase activity of Hsp90 (in words) (Hsp90 ATPase): dose-dependent inhibition
SMILES: COC1=C2C[C@@H](C)C[C@H](OC)[C@H](O)[C@@H](C)/C=C(\C)[C@H](OC(N)=O)[C@@H](OC)/C=C\C=C(/C)C(=O)NC(=CC1=O)C2=O [GA, Geldanamycin]
